According to patent US20250129095A1, “ANNULATED 2-AMINO-3-CYANO THIOPHENES AND DERIVATIVES FOR THE TREATMENT OF CANCER” (Boehringer Ingelheim Int'l GmbH Corp., priority 2021, published 2025):

These compounds were tested against T1, KRAS (G13D)::SOS1 (Homo sapiens, UniProt P01116, C118S/G13D) (assay: KRAS::SOS1 AlphaScreen binding assay, KRAS G13D).
T1 construct: KRAS (G13D) 1-169, N-terminal 6His-tag for purification, cleaved off; 6His-tag (N, cleaved yes); TEV cleavage site; made in house
Text: This assay can be used to examine the potency with which compounds according to the invention binding to (mutated) KRAS inhibit the protein-protein interaction between SOS1 and (mutated) KRAS e.g., KRAS WT, KRAS G12C, KRAS G12D, KRAS G12V, KRAS G13D. […] Low IC50 values in this assay setting are indicative of strong inhibition of protein-protein interaction between SOS1 and KRAS:
These assays measure the inhibitory effect of compounds on KRAS mutant protein-protein interactions using the Alpha Screen technology by Perkin Elmer […]
Plates are kept at room temperature in a darkened incubator. After an additional 60 minutes incubation time the signal is measured in a PerkinElmer Envision HTS Multilabel Reader using the AlphaScreen specs from PerkinElmer. […]
As internal control known inhibitors of KRAS mutant::SOS1 interaction can be measured on each compound plate. […]

T1 sequence (P01116 1-169 isoform P01116-2 G13D/C118S): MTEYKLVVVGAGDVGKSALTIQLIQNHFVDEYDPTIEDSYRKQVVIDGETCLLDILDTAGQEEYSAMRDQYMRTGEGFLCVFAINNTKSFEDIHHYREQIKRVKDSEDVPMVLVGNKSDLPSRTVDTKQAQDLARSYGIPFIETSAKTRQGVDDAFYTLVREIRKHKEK

IC50 [nM]	SMILES
8	C[C@H](Oc1cc(OCC2(N(C)C)COC2)nc(-c2onc3c2CCC[C@@]32CCCc3sc(N)c(C#N)c32)n1)[C@@H]1CCCN1C [Example I-8]
6	C[C@H](Oc1cc(OCC2(N(C)C)COC2)nc(-c2noc3c2CCC[C@@]32CCCc3sc(N)c(C#N)c32)n1)[C@@H]1CCCN1C [II-22]
8	COc1c(OCC2(N(C)C)COC2)nc(-c2noc3c2CCC[C@@]32CCCc3sc(N)c(C#N)c32)nc1O[C@@H](C)[C@@H]1CCCN1C [II-25]
